Measurements from article PMC10317887, “Hypoglycaemia frequency and physiological response after double or triple doses of once-weekly insulin icodec vs once-daily insulin glargine U100 in type 2 diabetes: a randomised crossover trial” (Diabetologia, 2023).

Key:
growth hormone = experiment: Counterregulatory hormone response: serum growth hormone (electrochemiluminescent immunoassay); assay type: in vivo, human; conditions: for Growth hormone at PG3.0 mmol/l, estimated geometric mean / Growth hormone at PGnadir, estimated geometric mean: serum, subgroup; for Growth hormone at PGnadir, estimated geometric mean: n=19 icodec
Experimental: (§1) Plasma concentrations of glucagon were measured by an enzyme-linked immunosorbent assay (Mercodia AB, Uppsala, Sweden). Plasma concentrations of adrenaline (epinephrine) and noradrenaline (norepinephrine) were measured by liquid chromatography-mass spectrometry (Thermo Fisher Scientific, Dreieich, Germany). Serum concentrations of cortisol and growth hormone were measured by electrochemiluminescent immunoassays (Roche Diagnostics, Mannheim, Germany).

[1] = test system: individuals with type 2 diabetes; experiment: Continuous glucose monitoring (CGM) after double and triple doses
Experimental: In addition to self-measured PG, which was performed throughout the trial, and PG measurements performed at the clinical site, continuous glucose monitoring (CGM) was conducted from the first dose of the first treatment period until the end of the second treatment period (Dexcom G6; Dexcom, San Diego, CA, USA). CGM data were visible to the participants and the investigators but were not used for titration of basal insulin dose or for reporting hypoglycaemia.
CGM data were summarised from the time of double or triple dose until the next insulin administration (excluding the period of hypoglycaemia induction experiments), thereby eliminating any confounding effect of other insulin.

albumin = conditions: ref [9], [10]; cited from earlier work
Description: (§2) In addition, the low insulin receptor binding affinity of icodec contributes to its long half-life by reducing the clearance rate, as insulin is mainly cleared by internalisation following binding to and activation of the insulin receptor [9, 10]. In case of excess amounts of icodec throughout the body, e.g ...

insulin receptor = conditions: ref [9], [10]; cited from earlier work
Description: as §2

glucagon = experiment: Counterregulatory hormone response: plasma glucagon (ELISA); assay type: in vivo, human; conditions: for Glucagon at PG3.0 mmol/l, estimated geometric mean / Glucagon at PGnadir, estimated geometric mean: plasma, subgroup
Experimental: as §1

[2] = test system: noradrenaline (norepinephrine); experiment: Counterregulatory hormone response: plasma noradrenaline (LC-MS); assay type: in vivo, human; conditions: for Noradrenaline at PG3.0 mmol/l, estimated geometric mean / Noradrenaline at PGnadir, estimated geometric mean: plasma, subgroup
Experimental: as §1

[3] = test system: individuals with type 2 diabetes; experiment: Hypoglycaemic symptoms score (HSS, Edinburgh Hypoglycaemia Scale) during hypoglycaemia induction; conditions: for Change in HSS at PG3.0 mmol/l, least-squares mean: change from baseline PG5.5 mmol/l; for Change in HSS at PG3.0 mmol/l, least-squares mean / Change in HSS at PGnadir, least-squares mean: subgroup; for Change in HSS at PGnadir, least-squares mean: change from baseline
Experimental: (§3) Hypoglycaemic response assessments were conducted at predefined PG levels during hypoglycaemia development and recovery (Fig. 1b). Hypoglycaemic symptoms score (HSS), hypoglycaemia awareness, counterregulatory hormones, vital signs and cognitive function tests were assessed at baseline (PG5.5 mmol/l), during hypoglycaemia development (PG3.9 mmol/l and PG3.0 mmol/l) and at PGnadir.
The validated Edinburgh Hypoglycaemia Scale was used to determine hypoglycaemic symptoms, which were classified into 11 different autonomic, neuroglycopenic and non-specific symptoms of hypoglycaemia [14, 15]. The participant scored each of the 11 symptoms on a seven-point scale (1=‘not at all’, while 7=‘a great deal’). The total score was derived as 11 multiplied by the mean score for all symptoms.
(§4) Changes in HSS, vital signs and cognitive function tests from baseline (PG5.5 mmol/l) to PG3.0 mmol/l and to PGnadir were compared between insulin products at each of the two dose levels using the same approach as described for PGnadir, except that no logarithmic transformation was done and that the baseline value was included as a covariate. Least-squares means, treatment difference and 95% CI were derived.

[4] = test system: individuals with type 2 diabetes; experiment: Cognitive function: trail making B (TMB) test; conditions: for Change in TMB at PG3.0 mmol/l, least-squares mean / Change in TMB at PGnadir, least-squares mean: change from baseline, subgroup
Experimental: as §3
Cognitive function was assessed using the trail making B (TMB) test, the digit symbol substitution test (DSST) and the four-choice reaction time (4CRT) test. In the TMB test from the Halstead Reitan Neuropsychological Battery [16, 17], the participant connects 25 circles distributed on a chart in the correct sequence as quickly as possible. The circles contain a number (1–13) or a letter (A–L), and the correct sequence consists of alternating numbers and letters (i.e. 1–A–2–B–3 etc). The test result is the time needed to complete the task correctly. In the DSST, which is a subtest of the Wechsler Adult Intelligence Scale - Revised [18], nine digits are represented by nine different symbols. During 90 s, the participant is requested to write down the appropriate symbol for as many numbers as possible in a given array. The test result is the number of correct responses. […] In 100 cycles, the participant responds by pressing the corresponding position on a keypad. The test result has two components: percentage of correct answers and the mean response time.
as §4

[5] = test system: individuals with type 2 diabetes; experiment: Hypoglycaemia awareness question 'Do you feel hypo?' during hypoglycaemia induction; assay type: in vivo, human; conditions: subgroup
Experimental: Hypoglycaemia awareness was determined by asking the question, ‘Do you feel hypo?’, to the participant.

cortisol = experiment: Counterregulatory hormone response: serum cortisol (electrochemiluminescent immunoassay); assay type: in vivo, human; conditions: for Cortisol at PG3.0 mmol/l, estimated geometric mean / Cortisol at PGnadir, estimated geometric mean: serum, subgroup; for Cortisol at PGnadir, estimated geometric mean: n=19 icodec
Experimental: as §1

adrenaline (epinephrine) = experiment: Counterregulatory hormone response: plasma adrenaline (LC-MS); assay type: in vivo, human; conditions: for Adrenaline at PG3.0 mmol/l, estimated geometric mean / Adrenaline at PGnadir, estimated geometric mean: plasma, subgroup
Experimental: as §1

[6] = double dose, n=17 icodec, 15 glargine U100
[7] = triple dose, n=20 icodec, 28 glargine U100
[8] = after double dose: first 2 weeks (icodec) / first 48 h (glargine U100), participants with clinically significant hypoglycaemia during induction
[9] = after triple dose: first week (icodec) / first 48 h (glargine U100), participants with clinically significant hypoglycaemia during induction
[10] = triple dose, listed as Insulin icodec
[11] = triple dose, n=20 icodec, 29 glargine U100
[12] = double dose, n=20 icodec, 19 glargine U100

## insulin icodec
Growth hormone; double dose
  Growth hormone at PG3.0 mmol/l, treatment ratio (95% CI) icodec vs glargine U100: 0.89 (0.46, 1.75)
  Growth hormone at PGnadir, treatment ratio (95% CI) icodec vs glargine U100: 1.35 (0.94, 1.94)
Growth hormone; [6]
  Growth hormone at PG3.0 mmol/l, estimated geometric mean: 3.6 µg/L
Growth hormone; double dose, 19 glargine U100
  Growth hormone at PGnadir, estimated geometric mean: 4.7 µg/L
Growth hormone; triple dose
  Growth hormone at PG3.0 mmol/l, treatment ratio (95% CI) icodec vs glargine U100: 1.54
  Growth hormone at PGnadir, treatment ratio (95% CI) icodec vs glargine U100: 1.10 (0.50, 2.43)
Growth hormone; triple dose, 29 glargine U100
  Growth hormone at PGnadir, estimated geometric mean: 3.8 µg/L
Growth hormone; [7]
  Growth hormone at PG3.0 mmol/l, estimated geometric mean: 3.7 µg/L
[1]; after double dose: first 2 weeks (icodec) / first 48 h (glargine U100), all participants
  Percentage time spent with glucose <3.9 mmol/l (CGM), mean±SD: 0.99±2.12%
[1]; after double dose: first 2 weeks (icodec) / first 48 h (glargine U100), all participants, induction period excluded
  Percentage time spent with glucose <3.0 mmol/l (CGM), mean±SD: 0.15±0.44%
[1]; [8]
  Percentage time spent with glucose <3.0 mmol/l (CGM), mean±SD: 0.21±0.45%
  Percentage time spent with glucose <3.9 mmol/l (CGM), mean±SD: 1.63±2.75%
[1]; after triple dose: first week (icodec) / first 48 h (glargine U100), all participants
  Percentage time spent with glucose <3.9 mmol/l (CGM), mean±SD: 1.56±3.54%
[1]; after triple dose: first week (icodec) / first 48 h (glargine U100), all participants, induction period excluded
  Percentage time spent with glucose <3.0 mmol/l (CGM), mean±SD: 0.29±1.24%
[1]; [9]
  Percentage time spent with glucose <3.0 mmol/l (CGM), mean±SD: 0.56±1.70%
  Percentage time spent with glucose <3.9 mmol/l (CGM), mean±SD: 2.67±4.71%
albumin
  Binding to albumin: strong, reversible binding
Insulin receptor
  Insulin receptor binding affinity: low
glucagon; double dose
  Glucagon at PG3.0 mmol/l, treatment ratio (95% CI) icodec vs glargine U100: 0.83 (0.59, 1.16)
  Glucagon at PGnadir, treatment ratio (95% CI) icodec vs glargine U100: 0.92 (0.69, 1.23)
glucagon; [6]
  Glucagon at PG3.0 mmol/l, estimated geometric mean: 39.6 ng/L
glucagon; double dose, n=19 icodec, 19 glargine U100
  Glucagon at PGnadir, estimated geometric mean: 48.9 ng/L
glucagon; triple dose
  Glucagon at PGnadir, treatment ratio (95% CI) icodec vs glargine U100: 1.01 (0.74, 1.38)
glucagon; [10]
  Glucagon at PG3.0 mmol/l, treatment ratio (95% CI) icodec vs glargine U100: 1.07 (0.86, 1.33)
glucagon; triple dose, listed as icodec
  Glucagon at PG3.0 mmol/l, treatment ratio (95% CI) icodec vs glargine U100: 1.07
glucagon; [7]
  Glucagon at PG3.0 mmol/l, estimated geometric mean: 55.2 ng/L
glucagon; [11]
  Glucagon at PGnadir, estimated geometric mean: 59.8 ng/L
[2]; double dose
  Noradrenaline at PG3.0 mmol/l, treatment ratio (95% CI) icodec vs glargine U100: 1.12 (0.83, 1.50)
  Noradrenaline at PGnadir, treatment ratio (95% CI) icodec vs glargine U100: 1.19 (0.91, 1.55)
[2]; [6]
  Noradrenaline at PG3.0 mmol/l, estimated geometric mean: 952.7 pmol/L
[2]; [12]
  Noradrenaline at PGnadir, estimated geometric mean: 1078.0 pmol/L
[2]; triple dose
  Noradrenaline at PG3.0 mmol/l, treatment ratio (95% CI) icodec vs glargine U100: 1.26
  Noradrenaline at PGnadir, treatment ratio (95% CI) icodec vs glargine U100: 1.05 (0.79, 1.40)
[2]; [7]
  Noradrenaline at PG3.0 mmol/l, estimated geometric mean: 1058.4 pmol/L
[2]; [11]
  Noradrenaline at PGnadir, estimated geometric mean: 934.1 pmol/L
[3]; double dose
  Change in HSS at PG3.0 mmol/l, treatment difference (95% CI) icodec vs glargine U100: 1.2 (-1.5, 4.0)
  Change in HSS at PGnadir, treatment difference (95% CI) icodec vs glargine U100: -0.3 (-4.0, 3.5)
[3]; [6]
  Change in HSS at PG3.0 mmol/l, least-squares mean: 1.8
[3]; [12]
  Change in HSS at PGnadir, least-squares mean: 6.0
[3]; triple dose
  Change in HSS at PGnadir, treatment difference (95% CI) icodec vs glargine U100: 0.5 (-2.7, 3.6)
[3]; [7]
  Change in HSS at PG3.0 mmol/l, least-squares mean: 2.2
[3]; [11]
  Change in HSS at PGnadir, least-squares mean: 5.4
[3]; [10]
  Change in HSS at PG3.0 mmol/l, treatment difference (95% CI) icodec vs glargine U100: -0.4 (-2.6, 1.8)
[3]; triple dose, listed as icodec
  Change in HSS at PG3.0 mmol/l, treatment difference (95% CI) icodec vs glargine U100: −0.4
[4]; double dose
  Change in TMB at PG3.0 mmol/l, treatment difference (95% CI) icodec vs glargine U100: 0.4 (-0.3, 1.0)
  Change in TMB at PGnadir, treatment difference (95% CI) icodec vs glargine U100: 0.3 (-0.2, 0.9)
[4]; double dose, n=16 icodec, 15 glargine U100
  Change in TMB at PG3.0 mmol/l, least-squares mean: 0.3 s
[4]; double dose, n=18 icodec, 18 glargine U100
  Change in TMB at PGnadir, least-squares mean: 0.3 s
[4]; triple dose
  Change in TMB at PG3.0 mmol/l, treatment difference (95% CI) icodec vs glargine U100: -0.1 (-0.4, 0.2)
  Change in TMB at PGnadir, treatment difference (95% CI) icodec vs glargine U100: -0.1 (-0.3, 0.1)
[4]; triple dose, n=19 icodec, 28 glargine U100
  Change in TMB at PGnadir, least-squares mean: -0.0 s
[4]; triple dose, n=20 icodec, 26 glargine U100
  Change in TMB at PG3.0 mmol/l, least-squares mean: -0.0 s
[5]; double dose, at PG3.0 mmol/l, n=9/17 icodec, 2/15 glargine U100
  Proportion of individuals answering 'Yes' to 'Do you feel hypo?': 52.9%
[5]; double dose, at PGnadir, n=14/20 icodec, 10/19 glargine U100
  Proportion of individuals answering 'Yes' to 'Do you feel hypo?': 70.0%
[5]; triple dose, at PG3.0 mmol/l, n=5/20 icodec, 8/28 glargine U100
  Proportion of individuals answering 'Yes' to 'Do you feel hypo?': 25.0%
[5]; triple dose, at PGnadir, n=9/20 icodec, 15/29 glargine U100
  Proportion of individuals answering 'Yes' to 'Do you feel hypo?': 45.0%
cortisol; double dose
  Cortisol at PG3.0 mmol/l, treatment ratio (95% CI) icodec vs glargine U100: 1.60 (0.91, 2.80)
  Cortisol at PGnadir, treatment ratio (95% CI) icodec vs glargine U100: 0.99 (0.67, 1.45)
cortisol; [6]
  Cortisol at PG3.0 mmol/l, estimated geometric mean: 245.9 nmol/L
cortisol; double dose, 19 glargine U100
  Cortisol at PGnadir, estimated geometric mean: 296.0 nmol/L
cortisol; triple dose
  Cortisol at PG3.0 mmol/l, treatment ratio (95% CI) icodec vs glargine U100: 1.64
  Cortisol at PGnadir, treatment ratio (95% CI) icodec vs glargine U100: 1.80
cortisol; triple dose, 29 glargine U100
  Cortisol at PGnadir, estimated geometric mean: 355.0 nmol/L
cortisol; [7]
  Cortisol at PG3.0 mmol/l, estimated geometric mean: 201.4 nmol/L
Adrenaline (epinephrine); double dose
  Adrenaline at PG3.0 mmol/l, treatment ratio (95% CI) icodec vs glargine U100: 0.90 (0.54, 1.52)
  Adrenaline at PGnadir, treatment ratio (95% CI) icodec vs glargine U100: 0.90 (0.62, 1.30)
Adrenaline (epinephrine); [6]
  Adrenaline at PG3.0 mmol/l, estimated geometric mean: 476.7 pmol/L
Adrenaline (epinephrine); [12]
  Adrenaline at PGnadir, estimated geometric mean: 530.4 pmol/L
Adrenaline (epinephrine); triple dose
  Adrenaline at PG3.0 mmol/l, treatment ratio (95% CI) icodec vs glargine U100: 2.54
  Adrenaline at PGnadir, treatment ratio (95% CI) icodec vs glargine U100: 1.29 (0.88, 1.89)
Adrenaline (epinephrine); [7]
  Adrenaline at PG3.0 mmol/l, estimated geometric mean: 793.8 pmol/L
Adrenaline (epinephrine); [11]
  Adrenaline at PGnadir, estimated geometric mean: 735.8 pmol/L
